Experimental data published in the supplement of paper PMC9386025.

Legend:
Assay in all cases: drug sensitivity score (DSS) (DSS (dimensionless)); higher = more sensitive (stronger drug response)
[1] = test system: OVSAHO
How it was run: (§1)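 Ovarian cancer cell lines with shRNA induced by 100 ng/ml doxycycline for at least three days, along with patient-derived cultures, were seeded at 1 000 – 1 500 cells per well onto drugs pre-plated in 384-well plates at five concentrations over a 10,000-fold range and incubated for three days at 37 °C and 5.0 % CO2. CellTiter-Glo luminescence measured on a PHERAstar FS served as the viability readout, and each drug's dose-response curve was summarised as a drug sensitivity score following an earlier published method.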

[2] = test system: FIMM-PDC3 (patient-derived ovarian cancer cells); conditions: genetic perturbation: none (patient-derived cell culture)
How it was run: as §1

[3] = test system: FIMM-PDC6 (patient-derived ovarian cancer cells); conditions: genetic perturbation: none (patient-derived cell culture)
How it was run: as §1

[4] = test system: Kuramochi
How it was run: as §1

[5] = test system: FIMM-PDC7 (patient-derived ovarian cancer cells); conditions: genetic perturbation: none (patient-derived cell culture)
How it was run: as §1

[6] = test system: JHOS2
How it was run: as §1

[7] = test system: FIMM-PDC1 (patient-derived ovarian cancer cells); conditions: genetic perturbation: none (patient-derived cell culture)
How it was run: as §1

[8] = test system: FIMM-PDC4 (patient-derived ovarian cancer cells); conditions: genetic perturbation: none (patient-derived cell culture)
How it was run: as §1

[9] = test system: FIMM-PDC5 (patient-derived ovarian cancer cells); conditions: genetic perturbation: none (patient-derived cell culture)
How it was run: as §1

[10] = genetic perturbation: DOX-induced PTK7 shRNA knockdown
[11] = genetic perturbation: DOX-induced control shRNA

SMILES	drug sensitivity score [1, 10]	drug sensitivity score [1, 11]	drug sensitivity score [2]	drug sensitivity score [3]	drug sensitivity score [4, 10]	drug sensitivity score [4, 11]	drug sensitivity score [5]	drug sensitivity score [6, 10]	drug sensitivity score [6, 11]	drug sensitivity score [7]	drug sensitivity score [8]	drug sensitivity score [9]
COc1ccc(-c2ccc3ncc4c(c3c2)n(-c2ccc(N3CCNCC3)c(C(F)(F)F)c2)c(=O)n4C)cn1 [NVP-BGT226]	17.8	16.2	12.6	21.5	10.1	13.4	22.4	11	15	12.2	19.7	25.6
COc1cc2c(cc1OC(C)C)[C@H](c1ccc(Cl)cc1)N(c1ccc(N(C)C[C@H]3CC[C@H](N4CCN(C)C(=O)C4)CC3)cc1)C(=O)C2 [NVP-CGM097]	5.2	8.5	7.4	10.9	5.75	8	10	5.9	6.1	5.45	9.2	15.4
CN[C@@H](C)C(=O)N[C@H](C(=O)N1CCC[C@H]1c1nc(C(=O)c2ccc(F)cc2)cs1)C1CCCCC1 [NVP-LCL161]	6	4.1	15.7	6.9	3.65	4.2	5.1	26	20.4	14.1	1.7	2.7
Cn1c(Nc2ccc(C(F)(F)F)cc2)nc2cc(Oc3ccnc(-c4ncc(C(F)(F)F)[nH]4)c3)ccc21 [NVP-RAF265]	1.5	0.3	6.7	1.3	0.1	< 0	2.8	< 0	3.8	1.4	2.9	14.6
CC(=O)c1cc2c(o1)C(=O)c1ccccc1C2=O [Napabucasin]	18.9	16.1	21.8	14.4	16.7	17.3	17.2	22	19.2	10.8	15.3	13.4
CC1(C)CCC(c2ccc(Cl)cc2)=C(CN2CCN(c3ccc(C(=O)NS(=O)(=O)c4ccc(N[C@H](CCN5CCOCC5)CSc5ccccc5)c(S(=O)(=O)C(F)(F)F)c4)cc3)CC2)C1 [Navitoclax]	10.1	< 0	5.7	21.9	1.8	4.3	16.4	1.1	< 0	4.85	6.2	19.5
CCOc1cc2ncc(C#N)c(Nc3ccc(OCc4ccccn4)c(Cl)c3)c2cc1NC(=O)/C=C/CN(C)C [Neratinib]	0.8	0.4	9.5	14.1	0.45	< 0	8.3	0.6	5.2	1.15	11.9	16.1
COC(=O)c1ccc2c(c1)NC(=O)/C2=C(\Nc1ccc(N(C)C(=O)CN2CCN(C)CC2)cc1)c1ccccc1 [Nintedanib]	9.4	1.5	2.5	1.9	7.2	2.7	1.2	4	4.4	0.25	8.5	9.9
CC(=O)c1cnc2ccc(-c3cc(Cl)c(O)c(Cl)c3)nc2c1N[C@H]1CC[C@H](CN(C)C)CC1 [OTS167]	8	10.6	12.4	13.9	10.1	5.8	14.6	15.7	18.8	11.3	12.3	14.7
O=C(c1cc(Cc2n[nH]c(=O)c3ccccc23)ccc1F)N1CCN(C(=O)C2CC2)CC1 [Olaparib]	3.5	2.5	1.5	9.2	3.35	2.6	6.1	6.6	3.2	3.45	3.8	6.1
COC(=O)C[C@](O)(CCCC(C)(C)O)C(=O)O[C@@H]1C(OC)=C[C@]23CCCN2CCc2cc4c(cc2[C@H]13)OCO4 [Omacetaxine]	21.7	21.7	27.2	25.3	23.8	14.3	23.8	20.8	21.6	23.7	22.9	21.3
CC1(C)CC[C@]2(NC(=O)C(C)(F)F)CC[C@]3(C)[C@H](C(=O)C=C4[C@@]5(C)C=C(C#N)C(=O)C(C)(C)[C@@H]5CC[C@]43C)[C@@H]2C1 [Omaveloxolone]	19.8	11.9	19.3	14.3	12.2	14.1	15.8	10.1	16.2	13.5	9.9	11.3
COc1ncc(-c2ccc3nccc(-c4ccnnc4)c3c2)cc1NS(=O)(=O)c1ccc(F)cc1F [Omipalisib]	17.7	17.7	17.7	16.5	17.8	10.8	20	9.3	10.5	11.7	19.8	21.9
CC(C)c1cc(C(=O)N2Cc3ccc(CN4CCN(C)CC4)cc3C2)c(O)cc1O [Onalespib]	< 0	5.4	9.4	12.8	7.1	< 0	10.6	10.3	11.4	10.4	15.1	12.5
COC[C@H](NC(=O)c1cnc(C)s1)C(=O)N[C@@H](COC)C(=O)N[C@@H](Cc1ccccc1)C(=O)[C@@]1(C)CO1 [Oprozomib]	17.3	10.2	23.6	24.9	12.6	18.3	19	23.6	17	19.5	15.9	11.6
C=CC(=O)Nc1cc(Nc2nccc(-c3cn(C)c4ccccc34)n2)c(OC)cc1N(C)CCN(C)C [Osimertinib]	5.9	3.3	9.5	12.5	4.8	4.3	9.6	4.1	4.1	4	11	14.4

SMILES	drug sensitivity score [1, 10]	drug sensitivity score [1, 11]	drug sensitivity score [2]	drug sensitivity score [3]	drug sensitivity score [4, 10]	drug sensitivity score [4, 11]	drug sensitivity score [5]	drug sensitivity score [6, 10]	drug sensitivity score [6, 11]	drug sensitivity score [7]	drug sensitivity score [8]	drug sensitivity score [9]
O=C(O)C(=O)O.[NH-][C@@H]1CCCC[C@H]1[NH-].[Pt+2] [Oxaliplatin]	9.9	5.9	17.3	7.8	8.65	5.8	11.5	8.2	6.2	5.4	5	11.2
COc1ccccc1S(=O)(=O)Nc1ccc2c(c1)CN(C)C(=O)N2 [PFI-1]	4.4	8.4	1.6	1.3	7.65	5	1.3	2.1	3.4	1.2	0.9	4.9
CN1CCN(c2cc(C(=O)Nc3ccc4c(c3)-c3c(c(C(N)=O)nn3-c3ccc(F)cc3)CC4)c(Cl)cn2)CC1 [PHA 408]	7.3	2.8	4.7	4.8	2.75	2.3	2.8	8.3	< 0	< 0	2.7	3.8
COc1cc(Br)c(Nc2nc(-c3c(C)nc4ncccn34)cs2)c(Br)c1 [PTC-209]	1.5	2.3	10	4.3	3	1.5	6.3	3.7	9.7	6.1	2.2	4.6
CC(=O)O[C@H]1C(=O)[C@@]2(C)[C@H]([C@H](OC(=O)c3ccccc3)[C@]3(O)C[C@H](OC(=O)[C@H](O)[C@@H](NC(=O)c4ccccc4)c4ccccc4)C(C)=C1C3(C)C)[C@]1(OC(C)=O)CO[C@@H]1C[C@@H]2O [Paclitaxel]	11.1	15.6	18.4	10.5	18.1	3.1	7	17.3	11.7	15.9	18.7	20.8
C1=N/C2=N/c3ccc(OCCN4CCCC4)c(c3)COC/C=C/COCc3cccc(c3)C(=C1)N2 [Pacritinib]	10.1	9.6	7.7	7.5	7.05	9.3	5	9.3	10.9	6.7	7.6	10.6
Cc1[nH]c2ccccc2c1CCNCc1ccc(/C=C/C(=O)NO)cc1 [Panobinostat]	13.5	11.2	13.7	12.4	19	7.2	8.2	13	13.6	11	8.1	15
Nc1nc2[nH]cc(CCc3ccc(C(=O)N[C@@H](CCC(=O)O)C(=O)O)cc3)c2c(=O)[nH]1 [Pemetrexed]	< 0	1.5	< 0	1.5	0.6	7.9	< 0	0.4	< 0	2.05	< 0	< 0
NS(=O)(=O)OC[C@@H]1C[C@@H](n2ccc3c(N[C@H]4CCc5ccccc54)ncnc32)C[C@@H]1O [Pevonedistat]	3.7	6.5	5.2	7.1	6.65	2.6	12.2	16.2	12.4	3.75	9.4	5.7
CS(=O)(=O)N1CCN(Cc2cc3nc(-c4cccc5[nH]ncc45)nc(N4CCOCC4)c3s2)CC1 [Pictilisib]	11.7	14.1	8.3	11.5	14	7.2	12.1	5.9	9	8.15	15.1	16.5
CO[C@H](C(=O)[C@@H](O)[C@@H](C)O)[C@@H]1Cc2cc3cc(O[C@H]4C[C@@H](O[C@@H]5C[C@@H](O)[C@H](O)[C@@H](C)O5)[C@H](O)[C@@H](C)O4)c(C)c(O)c3c(O)c2C(=O)[C@H]1O[C@H]1C[C@@H](O[C@@H]2C[C@@H](O)[C@@H](O[C@@H]3C[C@](C)(O)[C@H](O)[C@@H](C)O3)[C@@H](C)O2)[C@H](O)[C@@H](C)O1 [Plicamycin]	3.5	14.6	4.3	< 0	3.45	12.6	< 0	3.7	20.1	15.6	12.6	15.3
C=CC(=O)N1CCC(Oc2cc3c(Nc4ccc(Cl)c(Cl)c4F)ncnc3cc2OC)CC1 [Poziotinib]	2.6	0.3	16.4	21.2	0.95	1.4	16.1	< 0	< 0	3.5	22.9	27.2
CCCCc1nc2cc(/C=C/C(=O)NO)ccc2n1CCN(CC)CC [Pracinostat]	14.2	11.2	13.2	13.7	18	7.9	11.1	13.4	11.9	10.8	7.3	14.8
COc1cccc(OCCCN)c1-c1cc(Nc2cnc(C#N)cn2)n[nH]1 [Prexasertib]	17.4	11.1	27.1	15.4	22.4	8.8	14.3	23.3	7.3	22.6	19.2	24.3
Cn1cc(CNCC2CCN(c3ncc(C(=O)NO)cn3)CC2)c2ccccc21 [Quisinostat]	13.6	12	16.5	11.8	17.4	6.5	8.6	10.9	12.5	11	5.1	14.6
